“And” between values parts separate entries of the source, which are not always exact repeats. Equal entries are not always repeated.
Tested on: PPAR signaling pathway genes, fetal liver
Assay: Fetal liver (GD18) PPAR gene array, fold induction versus control; maternal oral dosing GD14-18; rows per gene in dose order 1, 3, 10, 30, 62.5, 125, 250, 500 mg/kg/d
Assay type: in vivo, Sprague-Dawley rats
Procedure: A total of three blocks of 15 dams per block were dosed once daily from GD14–18 with either water vehicle (control) or HFPO-DA to evaluate fetal and maternal effects (Figure 1A). The first block of dams was dosed with control, 62.5, 125, 250, or 500mg/kg HFPO-DA ( n=3 dams for each). The second and third blocks of dams were dosed with control, 1, 3, 10, or 30mg/kg HFPO-DA ( n=3 per dose per block). Total sample sizes were n=9 for control, n=6 for 1, 3, 10, 30mg/kg , and n=3 for 62.5, 125, 250, and 500mg/kg HFPO-DA. In the first two blocks, spanning the entire dose range, we evaluated fetal testis testosterone production, fetal testis gene expression, fetal and maternal liver gene expression, fetal body weight, and maternal serum thyroid hormone and lipid concentrations. In the third block, encompassing the lower dose range utilized here, we collected fetal plasma for measuring HFPO-DA concentrations. Across all three blocks we evaluated maternal weight gain during dosing, reproductive output (number of fetuses and resorptions), maternal serum HFPO-DA concentration, and maternal liver weight at necropsy.
For the first two blocks, spanning the full dose range, late gestation (GD18) dams were euthanized by decapitation at ∼2h after the final oral dose [ ∼0830–1000 hours Eastern Standard Time (EST)]. Trunk blood was collected and serum isolated via centrifugation ( 10,000×g for 15 min at 4°C) in vacutainer tubes, transferred to 1.5-mL microcentrifuge tubes and stored at −80°C . Dam liver weight was recorded and a sample of liver tissue was collected into a polypropylene microcentrifuge tube containing 500μL TRIzol Reagent (Invitrogen) on ice. Fetuses were removed and two randomly selected fetuses per litter were weighed. Fetal testes were collected from all male pups with a single testis from the first three males used for determination of ex vivo testosterone production and the remaining testes were homogenized and preserved in TRIzol Reagent for gene expression analysis. The liver was collected from a single, randomly selected fetus per dam/litter for gene expression analysis and transferred to a polypropylene microcentrifuge tube containing 500μL TRIzol Reagent (Invitrogen) on ice. Both dam and fetal liver samples were individually homogenized using a Bullet Blender (Next Advance) with 1-mm zirconium oxide beads, transferred to clean tubes, and stored at −80°C prior to RNA extraction (see below). Ex vivo fetal testis testosterone production was measured as previously reported ([Wilson et al. 2004b]) except the radioimmunoassay (RIA) utilized here was supplied by ALPCO (Catalog No. 72-TESTO-CT2, ALPCO). Briefly, one testis was isolated from each of three separate male fetuses in each litter and incubated in a humidified atmosphere at 37°C for 3 h in 500μL of M-199 media (phenol red–free; Hazelton Biologics, Inc.) supplemented with 10% dextran-coated charcoal-stripped fetal bovine serum (Hyclone Laboratories) in 24-well plates under gentle agitation. After incubation, media were removed and stored in siliconized microcentrifuge tubes at −80°C until RIA analyses, which were performed according to manufacturer specifications.
Gene expression in fetal testes and fetal/maternal livers was assessed using reverse transcriptase real-time PCR of cDNA synthesized from RNA extracted from sample homogenates. RNA extraction was conducted according to TRIzol Reagent manufacturer specifications using chloroform and isopropanol. Following extraction, RNA was purified using the RNeasy Mini Kit (Catalog No. 74104; Qiagen). RNA concentration and purity (260:280 ratio ≥1.8 ) were determined with a NanoDrop 2000 spectrophotometer (Thermo Scientific). For the fetal testes, a 96-well gene array plate was previously custom designed to contain 89 target genes and 3 housekeeping genes, an intra-assay control, a genomic DNA control, a reverse transcriptase control, and a positive PCR control [see Table S1; SABioscience; ([Hannas et al. 2012])]. […]

For `O=C(O)C(F)(OC(F)(F)C(F)(F)C(F)(F)F)C(F)(F)F` (stereo not shown) [HFPO-DA, Hexafluoropropylene oxide dimer acid], the Acox3 (dose order) was 1.1 fold and 1.3 fold and 1.2 fold and 1.0 fold, the Acsl3 (dose order) was 1.0 fold and 1.1 fold and 1.2 fold and 1.3 fold and 1.4 fold and 1.5 fold and the Acsl4 (dose order) was 1.0 fold and 1.2 fold and 1.5 fold and 1.6 fold and 1.7 fold. For the same molecule, the Acsl5 (dose order) was 0.8 fold and 0.9 fold and 1.1 fold and 1.0 fold, the Apoa1 (dose order) was 1.1 fold and 1.2 fold and 0.9 fold and 1.0 fold and 1.5 fold and the Apoa5 (dose order) was 1.4 fold and 1.3 fold and 1.5 fold and 1.6 fold and 1.0 fold. The Apoc3 (dose order) was 1.0 fold and 1.1 fold and 1.3 fold and 0.9 fold and 1.2 fold and 1.4 fold, the Apoe (dose order) was 1.1 fold and 0.9 fold and 1.0 fold and 1.2 fold and the Aqp7 (dose order) was 1.0 fold and 1.3 fold and 1.5 fold and 1.6 fold and 1.7 fold and 1.8 fold. For the same molecule, the Cd36 (dose order) was 0.8 fold and 0.9 fold, the Clu (dose order) was 1.1 fold and 1.4 fold and 1.3 fold and 1.2 fold and the Creb1 (dose order) was 1.0 fold and 1.1 fold and 0.9 fold and 0.8 fold. For the same molecule, the Crebbp (dose order) was 1.0 fold and 1.1 fold and 0.9 fold, the Cyp27a1 (dose order) was 1.1 fold and 1.0 fold and 0.9 fold and the Dgat1 (dose order) was 1.1 fold and 1.2 fold and 1.4 fold and 1.5 fold. The Eln (dose order) was 1.6 fold and 1.0 fold and 1.3 fold and 1.1 fold and 1.5 fold and 1.4 fold and 1.2 fold, the Ep300 (dose order) was 1.0 fold and 1.2 fold and 0.9 fold and the Fabp2 (dose order) was 0.9 fold and 1.0 fold and 1.1 fold and 0.7 fold. The Fabp3 (dose order) was 1.0 fold and 1.2 fold and 1.1 fold and 0.8 fold, the Fabp4 (dose order) was 1.4 fold and 1.5 fold and 1.2 fold and 0.9 fold and 1.0 fold and the Fabp5 (dose order) was 1.1 fold and 1.0 fold and 1.3 fold and 1.4 fold and 1.5 fold and 1.8 fold. The Fabp7 (dose order) was 1.0 fold and 1.3 fold and 1.4 fold and 1.8 fold and 1.9 fold, the Fads2 (dose order) was 1.1 fold and 1.2 fold and 1.6 fold and 1.8 fold and 2.0 fold and 2.2 fold and 2.1 fold and the Fgr (dose order) was 0.9 fold and 1.3 fold and 1.0 fold and 1.1 fold and 0.8 fold. The Gk (dose order) was 1.4 fold and 1.9 fold and 1.7 fold and 2.0 fold and 1.0 fold and 1.2 fold, the Hif1a (dose order) was 1.0 fold and 1.1 fold and 1.2 fold and the Hspd1 (dose order) was 1.1 fold and 1.0 fold and 1.2 fold and 1.3 fold. The Ilk (dose order) was 1.0 fold and 1.2 fold and 1.1 fold, the Klf10 (dose order) was 1.0 fold and 1.1 fold and 1.5 fold and 1.7 fold and 1.6 fold and 1.4 fold and the Lpin1 (dose order) was 1.0 fold and 1.2 fold and 0.8 fold and 0.9 fold and 1.3 fold. The Lpl (dose order) was 1.0 fold and 1.1 fold and 1.2 fold and 1.4 fold and 1.3 fold and 1.5 fold, the Med1 (dose order) was 1.0 fold and 1.1 fold and 0.9 fold and the Mmp9 (dose order) was 1.2 fold and 1.5 fold and 1.0 fold and 1.1 fold and 0.9 fold. The Ncoa3 (dose order) was 1.0 fold and 1.3 fold and 0.9 fold, the Ncoa6 (dose order) was 1.0 fold and 1.1 fold and 0.9 fold and the Nr1h3 (dose order) was 1.1 fold and 1.2 fold and 1.0 fold. The Pck2 (dose order) was 0.9 fold and 1.1 fold and 1.0 fold, the Pdpk1 (dose order) was 0.9 fold and 1.1 fold and 0.8 fold and 1.0 fold and the Pltp (dose order) was 1.5 fold and 1.0 fold and 1.4 fold and 1.1 fold. The Ppara (dose order) was 1.1 fold and 1.2 fold and 0.9 fold and 1.4 fold and 1.3 fold, the Ppard (dose order) was 0.9 fold and 1.4 fold and 1.1 fold and 1.0 fold and 1.2 fold and the Ppargc1a (dose order) was 0.9 fold and 1.0 fold and 0.7 fold and 0.6 fold and 0.5 fold. For the same molecule, the Ppargc1b (dose order) was 1.1 fold and 1.3 fold and 1.2 fold and 0.9 fold and 1.0 fold, the Pprc1 (dose order) was 1.0 fold and 1.1 fold and 0.9 fold and 1.2 fold and the Pten (dose order) was 0.9 fold and 1.0 fold and 1.1 fold and 0.8 fold. For the same molecule, the Rxra (dose order) was 1.0 fold and 1.2 fold and 1.1 fold, the Rxrb (dose order) was 1.0 fold and 1.2 fold and 1.1 fold and 0.9 fold and the Sirt1 (dose order) was 0.9 fold and 1.0 fold and 0.8 fold. The Slc27a1 (dose order) was 1.0 fold and 1.1 fold and 0.9 fold, the Slc27a4 (dose order) was 1.0 fold and 1.2 fold and 0.9 fold and the Slc27a5 (dose order) was 1.2 fold and 1.1 fold and 0.9 fold and 1.0 fold. The Slc27a6 (dose order) was 1.4 fold and 1.1 fold and 1.0 fold and 1.3 fold and 1.7 fold and 1.5 fold, the Smarcd3 (dose order) was 1.2 fold and 1.0 fold and 0.9 fold and 1.1 fold and the Sorbs1 (dose order) was 1.2 fold and 1.5 fold and 1.3 fold and 0.9 fold and 1.1 fold and 1.0 fold. The Tgs1 (dose order) was 0.9 fold and 1.0 fold and 0.8 fold, the Txnip (dose order) was 0.9 fold and 1.1 fold and 1.2 fold and the “number of significantly up-regulated PPAR pathway genes” value (fetal liver, ANOVA p<0.0001) was 28 genes. The “dose with up-regulated PPAR pathway gene expression in maternal and fetal livers” value (oral GD14-18) was ≥ 1 mg/kg.
